Patent publication US9168248B2, “Spiro compounds useful as inhibitors of stearoyl-coenzyme A delta-9 desaturase” (Merck Canada Inc., priority 2009, dated 2015)

Molecular target: human SCD1 (Homo sapiens (Human), UniProt O00767)
Test: SCD enzyme activity assay (conversion of radiolabeled stearoyl-CoA to oleoyl-CoA), human SCD1
Type: biochemical
Conditions: human SCD1 from baculovirus/Sf9 expression system, reconstituted with cytochrome B5 and cytochrome B5 reductase; read-out: IC50 hSCD-1
Description: I. SCD Enzyme Activity Assay:
The potency of compounds of formula I against the stearoyl-CoA desaturase was determined by measuring the conversion of radiolabeled stearoyl-CoA to oleoyl-CoA using rat liver microsome or human SCD1 following previously published procedures with some modifications (Joshi, et al., J. Lipid Res., 18: 32-36 (1977); Talamo, et al., Anal. Biochem, 29: 300-304 (1969)). Liver microsome was prepared from male Wistar or Sprague Dawley rats on a high carbohydrate diet for 3 days (LabDiet #5803, Purina). The livers were homogenized (1:10 w/v) in a buffer containing 250 mM sucrose, 1 mM EDTA, 5 mM DTT and 50 mM Tris-HCl (pH 7.5). After a 100,000×g centrifugation for 60 min, the liver microsome pellet was suspended in a buffer containing 100 mM sodium phosphate, 20% glycerol, 2 mM DTT, and stored at −78° C. Human SCD1 desaturase system was reconstituted using human SCD1 from a baculovirus/Sf9 expression system, cytochrome B5 and cytochrome B5 reductase. Typically, test compound in 2 μL DMSO was incubated for […] at room temperature with 180 μL of the SCD enzyme in a buffer containing 100 mM Tris-HCl (pH 7.5), ATP (5 mM), Coenzyme-A (0.1 mM), Triton X-100 (0.5 mM) and NADH (2 mM). The reaction was initiated by the addition of 20 μL of [^3H]-stearoyl-CoA (final concentration=2 μM, radioactivity concentration=1 μCi/mL). After 10 mM, the reaction mixture (80 μL) was mixed with a calcium chloride/charcoal aqueous suspension (100 μL charcoal (10% w/v) plus 25 μL CaCl2 (2N). After centrifugation to precipitate the radioactive fatty acid species, tritiated water released from 9,10-[^3H]-stearoyl-CoA by the SCD enzyme was quantified on a scintillation counter.

Sequence of human SCD1 (O00767 whole entry): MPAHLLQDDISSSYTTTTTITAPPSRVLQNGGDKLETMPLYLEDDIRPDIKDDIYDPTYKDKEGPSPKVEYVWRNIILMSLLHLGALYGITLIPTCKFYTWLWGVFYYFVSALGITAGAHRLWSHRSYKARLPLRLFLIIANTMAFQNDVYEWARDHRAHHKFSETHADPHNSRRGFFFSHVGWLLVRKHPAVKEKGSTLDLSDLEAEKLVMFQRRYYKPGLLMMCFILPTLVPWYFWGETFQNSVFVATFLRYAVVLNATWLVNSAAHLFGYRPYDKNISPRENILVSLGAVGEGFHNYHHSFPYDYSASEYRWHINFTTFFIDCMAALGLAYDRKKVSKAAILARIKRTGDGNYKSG

| Compound | IC50 [nM] |
| --- | --- |
| O=C(O)Cn1nnc(-c2cnc(N3CCC4(CC3)COc3ccccc34)s2)n1 [Example 6, {5-[2-(1′H-Spiro[1-benzofuran-3,4′-piperidin]-1′-yl)-1,3-thiazol-5-yl]-2H-tetrazol-2-yl}acetic acid] | 65 |
| O=C(O)Cn1nnc(-c2cnc(N3CCC4(CCc5ccccc54)CC3)s2)n1 [Example 5, {5-[2-(2,3-Dihydro-1′H-spiro[indene-1,4′-piperidin]-1′-yl)-1,3-thiazol-5-yl]-2H-tetrazol-2-yl}acetic acid] | 49 |
| O=C(O)Cn1nnc(-c2cnc(N3CCC4(CC3)NC(=O)c3ccccc3O4)s2)n1 [Example 9, {5-[2-(4-Oxo-3,4-dihydro-1′H-spiro[1,3-benzoxazine-2,4′-piperidin]-1′-yl)-1,3-thiazol-5-yl]-2H-tetrazol-2-yl}acetic acid] | 181 |
| O=C(O)Cn1nnc(-c2nnc(N3CCC4(CCc5c(O)cccc5O4)CC3)s2)n1 [Example 12, {5-[5-(5-Hydroxy-3,4-dihydro-1′H-spiro[chromene-2,4′-piperidin]-1′-yl)-1,3,4-thiadiazol-2-yl]-2H-tetrazol-2-yl}acetic acid] | 366 |
| O=C(O)Cn1nnc(-c2cc(N3CCC4(CCc5c(Cl)cccc5O4)CC3)no2)n1 [Example 2, {5-[3-(5-Chloro-3,4-dihydro-1′H-spiro[chromene-2,4′-piperidin]-1′-yl)isoxazol-5-yl]-2H-tetrazol-2-yl}acetic acid] | 11 |
| O=C(O)Cn1nnc(-c2nnc(N3CCC4(CC3)CC(=O)c3ccccc3O4)s2)n1 [Example 8, {5-[5-(4-Oxo-3,4-dihydro-1′H-spiro[chromene-2,4′-piperidin]-1′-yl)-1,3,4-thiadiazol-2-yl]-2H-tetrazol-2-yl}acetic acid] | 708 |
| COc1cccc2c1CCC1(CCN(c3nnc(-c4nnn(CC(=O)O)n4)s3)CC1)O2 [Example 11, {5-[5-(5-Methoxy-3,4-dihydro-1′H-spiro[chromene-2,4′-piperidin]-1′-yl)-1,3,4-thiadiazol-2-yl]-2H-tetrazol-2-yl}acetic acid] | 13 |
| O=C(O)Cn1nnc(-c2cnc(N3CCC4(CC3)NC(=O)c3c(Cl)cccc3O4)s2)n1 [Example 54] | 62 |
| O=C(O)Cn1nnc(-c2cnc(N3CCC4(CCc5c(Cl)cccc5O4)CC3)s2)n1 [Example 3, {5-[2-(5-Chloro-3,4-dihydro-1′H-spiro[chromene-2,4′-piperidin]-1′-yl)-1,3-thiazol-5-yl]-2H-tetrazol-2-yl}acetic acid] | 13 |
| O=C(O)Cn1nnc(-c2nnc(N3CCC4(CC3)Cc3ccccc3C(=O)O4)s2)n1 [Example 10, {5-[5-(1-Oxo-1,4-dihydro-1′H-spiro[isochromene-3,4′-piperidin]-1′-yl)-1,3,4-thiadiazol-2-yl]-2H-tetrazol-2-yl}acetic acid] | 338 |
| O=C(O)Cn1nnc(-c2cnc(N3CCC4(CC3)Cc3cccc(Cl)c3C(=O)O4)s2)n1 [Example 46, {5-[2-(8-Chloro-1-oxo-1,4-dihydro-1′H-spiro[isochromene-3,4′-piperidin]-1′-yl)-1,3-thiazol-5-yl]-2H-tetrazol-2-yl}acetic acid] | 21 |
| O=C(O)Cn1nnc(-c2cnc(N3CCC4(C=Cc5ccccc54)CC3)s2)n1 [Example 7, {5-[2-(1′H-Spiro[indene-1,4′-piperidin]-1′-yl)-1,3-thiazol-5-yl]-2H-tetrazol-2-yl}acetic acid] | 244 |
| O=C(O)Cn1nnc(-c2nnc(N3CCC4(CCc5c(Cl)cccc5O4)CC3)s2)n1 [Example 1, {5-[5-(5-Chloro-3,4-dihydro-1′H-spiro[chromene-2,4′-piperidin]-1′-yl)-1,3,4-thiadiazol-2-yl]-2H-tetrazol-2-yl}acetic acid] | 12 |
| O=C(O)Cn1nnc(-c2cnc(N3CCC4(CC3)CC(=O)c3ccccc3O4)s2)n1 [Example 4, {5-[2-(4-Oxo-3,4-dihydro-1′H-spiro[chromene-2,4′-piperidin]-1′-yl)-1,3-thiazol-5-yl]-2H-tetrazol-2-yl}acetic acid] | 41 |

Compounds with a lower IC50, results first:

| IC50 [nM] | Compound |
| --- | --- |
| 3 | {4-[5-(5-Chloro-3,4-dihydro-1′H-spiro[chromene-2,4′-piperidin]-1′-yl)-1,3,4-thiadiazol-2-yl]-1H-1,2,3-triazol-1-yl}acetic acid [Example 72] |
| 3 | O=C(O)Cn1ccn(-c2cnc(N3CCC4(CCc5c(Cl)cccc5O4)CC3)s2)c1=O [Example 68, {3-[2-(5-Chloro-3,4-dihydro-1′H-spiro[chromene-2,4′-piperidin]-1′-yl)-1,3-thiazol-5-yl]-2-oxo-2,3-dihydro-1H-imidazol-1-yl}acetic acid] |
| 1 | O=C(O)Cn1nnc(-c2cc(N3CCC4(CCc5c(OC(F)(F)F)cccc5O4)CC3)no2)n1 [Example 16, (5-{3-[5-(Trifluoromethoxy)-3,4-dihydro-1H-spiro[chromene-2,4′-piperidin]-1′-yl]isoxazol-5-yl}-2H-tetrazol-2-yl)acetic acid] |
| 1 | O=C(O)Cn1nnc(-c2nnc(N3CCC4(CCc5c(cccc5C(F)(F)F)O4)CC3)s2)n1 [Example 75, (5-{5-[5-(Trifluoromethyl)-3,4-dihydro-1′H-spiro[chromene-2,4′-piperidin]-1′-yl]-1,3,4-thiadiazol-2-yl}-2H-tetrazol-2-yl)acetic acid] |
| 1 | Cc1cccc2c1CCC1(CCN(c3ncc(-c4nnn(CC(=O)O)n4)s3)CC1)O2 [Example 42, {5-[2-(5-Methyl-3,4-dihydro-1′H-spiro[chromene-2,4′-piperidin]-1′-yl)-1,3-thiazol-5-yl]-2H-tetrazol-2-yl}acetic acid] |
| 1 | O=C(O)Cn1nnc(-c2cc(N3CCC4(CCc5c(Br)cccc5O4)CC3)no2)n1 [Example 22, {5-[3-(5-Bromo-3,4-dihydro-1′H-spiro[chromene-2,4′-piperidin]-1′-yl)isoxazol-5-yl]-2H-tetrazol-2-yl}acetic acid] |
| 1 | O=C(O)Cn1nnc(-c2nnc(N3CCC4(CCc5c(OC(F)(F)F)cccc5O4)CC3)s2)n1 [Example 17, (5-{5-[5-(Trifluoromethoxy)-3,4-dihydro-1′H-spiro[chromene-2,4′-piperidin]-1′-yl]-1,3,4-thiadiazol-2-yl}-2H-tetrazol-2-yl)acetic acid] |
| 1 | O=C(O)Cn1nnc(-c2cnc(N3CCC4(CCc5c(OC(F)(F)F)cccc5O4)CC3)s2)n1 [Example 18, (5-{2-[5-(Trifluoromethoxy)-3,4-dihydro-1′H-spiro[chromene-2,4′-piperidin]-1′-yl]-1,3-thiazol-5-yl}-2H-tetrazol-2-yl)acetic acid] |
| 1 | O=C(O)Cn1nnc(-c2cnc(N3CCC4(CCc5c(cccc5C(F)(F)F)O4)CC3)s2)n1 [Example 76, (5-{2-[5-(Trifluoromethyl)-3,4-dihydro-1′H-spiro[chromene-2,4′-piperidin]-1′-yl]-1,3-thiazol-5-yl}-2H-tetrazol-2-yl)acetic acid] |
| 1 | O=C(O)Cn1nnc(-c2cnc(N3CCC4(CCc5c(Br)cccc5O4)CC3)s2)n1 [Example 28, {5-[2-(5-Bromo-3,4-dihydro-1′H-spiro[chromene-2,4′-piperidin]-1′-yl)-1,3-thiazol-5-yl]-2H-tetrazol-2-yl}acetic acid] |
